Assay: Suppression test of Experimental Example 1: masking and harmonizing effect in a cup, four expert panelists;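 as to harmonizing: score 1 means in harmony 0 indefinite and −1 not in harmony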
Details: 200 μl pseudo body odor composition of Example 4 and 10 μl perfume on filter papers in sealed about 500 ml cup, after 30 minutes, four expert panelists; for Masking: scale 0-3; for Harmonizing: scale −1 to 1
Method: In the present invention, the selection of the above component (I), component (II) and component (III) was carried out as follows. That is, one of the pseudo body odor compositions mentioned above and a target fragrance component were mixed and left at room temperature for 30 minutes. Thereafter, evaluations of the masking and harmonizing effects to the acid odor were carried out by four expert panelists.
After 30 minutes, a hole of about 1 cm in diameter was formed in the aluminum foil and the investigations of masking effect and the harmonizing effect were carried out according to following evaluation criteria by four expert panelists.
3: Excellent in the masking.
2: Substantially excellent in the masking.
1: Slightly sensible of the body odor (sweat odor and armpit odor).
0: Sensible of the body odor (sweat odor and armpit odor) (insufficient in the masking)

Work on `C=CC(C)(CCC=C(C)C)OC(C)=O` (centres unmarked) [Linalyl acetate] yielded a Masking of 1 and a Harmonizing of −1.

Work on `CC(=O)OC(C)(C)Cc1ccccc1` [Dimethylbenzyl carbinyl acetate] yielded a Masking of 1 and a Harmonizing of −1.

Work on `CC(C=O)Cc1ccc2c(c1)OCO2` (stereo not drawn) [Helional, α-methyl-3,4-methylene dioxyhydrocinnamic aldehyde] yielded a Masking of 1 and a Harmonizing of 0.

`O=CCc1ccccc1` [Phenyl acetoaldehyde] showed a Masking of 3 and a Harmonizing of 1.

With `O=CCCC=C1CC2CC1C1CCCC21` (centres unmarked) [4-Tricyclodecylene butanal] the Masking was 1.5 points and the Harmonizing was 0.

Work on `CCCCCCCCC=CCC=O` [Example 3-Dodecenal, 3-Dodecenal] yielded a Masking of 0.5 points and a Harmonizing of −1.

With `CC(C)=CCCC(C)=CC=O` [Citral] the Masking was 3 and the Harmonizing was 1.

`C/C=C/C(=O)C1=C(C)C=CCC1(C)C` [Damascenone] showed a Masking of 2 and a Harmonizing of 1.

With `CCC(=CCC1CC=C(C)C1(C)C)CO` (centres unmarked) [Levosandol, 2-ethyl-4-(2,2,3-trimethyl-3-cyclopentene-1-yl)-2-butene-1-ol] the Masking was 2.5 points and the Harmonizing was 1.

`Cc1ccc(C(C)C)c(O)c1` [Thymol] gave a Masking of 1 and a Harmonizing of −1.

Compound `CC(C)=C[C@@H]1C[C@H](C)CCO1` [L-Rose oxide] has a Masking of 3 and a Harmonizing of 1.

`CC(C)(O)CCCC1=CCC(C=O)CC1` (centres unmarked) [Kovanol, 4(3)-(4-hydroxy-4-methylpentyl)-3-cyclohexene-1-carboxy aldehyde] showed a Masking of 1 and a Harmonizing of 0.

Compound `COC(=O)c1ccccc1N=CCC(C)CCCC(C)(C)O` (centres unmarked) [Aurantiol, Hydoroxycitronellylidene methyl anthranilate] has a Masking of 2 and a Harmonizing of 1.

With `CC(=O)/C(C)=C/C1C(C)=CCCC1(C)C` (centres unmarked) [γ-Methylionone] the Masking was 2 and the Harmonizing was 1.

With `CC(C)[C@H]1CC[C@@H](CO)CC1` [Myol, cis-p-isopropylcyclohexyl methanol] the Masking was 1 and the Harmonizing was −1.

In the case of `CCC=C(C)C(O)CCCCC` (centres unmarked) [4-Methyl-3-decene-5-ol], the Masking is reported as 2.5 points and the Harmonizing is reported as 0.

For `C=CCCCCCCCCO` [Example 9-Decen-1-ol, 9-Decen-1-ol], the Masking was 1.5 points and the Harmonizing was 0.

`CCOC(=O)C1OC1(C)c1ccccc1` (centres unmarked) [Ethyl-3-methyl-3-phenyl glycidate] gave a Masking of 2 and a Harmonizing of 0.

For `CC(=O)OC/C=C(\C)CCC=C(C)C` [Geranyl acetate], the Masking was 1 and the Harmonizing was −1.

Compound `COc1ccc(C=O)cc1` [4-Methoxybenzaldehyde] has a Masking of 2.5 points and a Harmonizing of 1.

`C/C=C/C(=O)C1C(C)C=CCC1(C)C` (centres unmarked) [δ-Damascone] gave a Masking of 1.5 points and a Harmonizing of 0.

Work on `CCCCCC=O` [Hexanal] yielded a Masking of 3 and a Harmonizing of 1.

Work on `O=C1CCCC=CCCCCCCCCCC1` [Ambretone, 5-cyclohexadecene-l-one] yielded a Masking of 1.5 points and a Harmonizing of 0.

In the case of `CC(=O)C1(C)CC2=C(CCCC2(C)C)CC1C` (centres unmarked) [Iso E super, 7-acetyl-1,2,3,4,5,6,7,8-octahydro-1,1,6,7-tetramethyl naphthalene], the Masking is reported as 1 and the Harmonizing is reported as −1.

Work on `COC(=O)Cc1ccccc1` [Methyl phenyl acetate] yielded a Masking of 2.5 points and a Harmonizing of 1.

Work on `CCCCCCCCCCC=CC#N` [Tridecene-2-nitrile] yielded a Masking of 1.5 points and a Harmonizing of 0.

In the case of `CC(C)[C@@H]1CC[C@@H](C)CC1=O` [Mentone], the Masking is reported as 3 and the Harmonizing is reported as 1.

`CCCCCCCCCC=O` [Decanal] showed a Masking of 1 and a Harmonizing of −1.

`CC(C)(O)Cc1ccccc1` [α,α-Dimethylphenylethyl, α,α-dimethyl phenylethyl alcohol] gave a Masking of 0.5 points and a Harmonizing of −1.

With `C=CCOC(=O)CCCCC` [Allyl caproate] the Masking was 3 and the Harmonizing was 1.

Compound `CC1(C)CCCC2(C)C1CCC1(C)OCCC12` (stereo not drawn) [Ambroxan, Decahydro-3α, 6,6,9α-tetramethyldodecanhydronaphto[2,1-b]furan] has a Masking of 2 and a Harmonizing of 1.

In the case of `c1ccc(Oc2ccccc2)cc1` [Diphenyl oxide], the Masking is reported as 1.5 points and the Harmonizing is reported as 0.

For `CCCCCC1CCC(=O)O1` (centres unmarked) [γ-Nonalactone], the Masking was 2.5 points and the Harmonizing was 1.

Work on `COC(=O)c1ccccc1` [Methyl benzoate] yielded a Masking of 3 and a Harmonizing of 1.

`CC(=O)OC1CCC(C(C)(C)C)CC1` (centres unmarked) [p-tert-Butylcyclohexyl acetate] gave a Masking of 1.5 points and a Harmonizing of −1.

For `O=C/C=C/c1ccccc1` [Cinnamic aldehyde], the Masking was 2 and the Harmonizing was 0.

In the case of `CCCCCOC(=O)c1ccccc1O` [Amyl salicylate], the Masking is reported as 1 and the Harmonizing is reported as 0.

`C=CCCC(=O)/C=C/C1C(C)=CCCC1(C)C` (centres unmarked) [Allylionone] showed a Masking of 2.5 points and a Harmonizing of 0.

`CO[C@]1(C)CC[C@@]23C[C@@H]1C(C)(C)[C@@H]2CC[C@H]3C` [Cedryl methyl ether] gave a Masking of 1 and a Harmonizing of −1.

`CCC(=O)OC1CC2CC1C1CC=CC21` (centres unmarked) [Cyclaprop, tricyclodecenyl propionate] showed a Masking of 1 and a Harmonizing of −1.

In the case of `CC(C)Cc1ccc2ncccc2c1` [Isobutyl quinoline], the Masking is reported as 2 and the Harmonizing is reported as 1.

Work on `CC(=O)CCc1ccc(O)cc1` [Raspberry ketone, 4-(4-hydroxyphenyl)-2-butanone] yielded a Masking of 0.5 points and a Harmonizing of −1.

`CCCC(O)CCC1C(C)CCCC1(C)C` (centres unmarked) [Ambestol, 1-(2,2,6-trimethylcyclohexyl)-3-hexanol] gave a Masking of 0 and a Harmonizing of −1.

`CC(C)=CCCC(C)CCO` (centres unmarked) [Citronellol] showed a Masking of 2.5 points and a Harmonizing of 1.

Work on `CCCCCCCCC=O` [Nonanal] yielded a Masking of 1.5 points and a Harmonizing of −1.

In the case of `CCOC(=O)C1C(C)CCCC1(C)C` (centres unmarked) [Thesaron, ethyl 2,2,6-trimethylcyclohexane carboxylate], the Masking is reported as 2 and the Harmonizing is reported as 0.

`CC(C)=CCCC(C)CCCC(C)C=O` (centres unmarked) [2,6,10-Trimethyl-9-undecenal] gave a Masking of 1 and a Harmonizing of −1.

With `CCCCCCCC=O` [Octanal] the Masking was 3 and the Harmonizing was 1.

Work on `CC(=O)c1c(C)cc(C(C)(C)C)cc1C` [4-tert-Butyl-2,6-dimethylacetophenone] yielded a Masking of 2 and a Harmonizing of 0.

`O=C(OCc1ccccc1)c1ccccc1O` [Benzyl salicylate] gave a Masking of 1 and a Harmonizing of −1.

For Methylionone, the Masking was 2 and the Harmonizing was 1.

Compound `CC(C)CCCC(C)CCO` (centres unmarked) [Dimethyl octanol] has a Masking of 1.5 points and a Harmonizing of 0.

Compound `CC(C)(C)C1CCC(O)CC1` (centres unmarked) [p-tert-Butylcyclohexanol] has a Masking of 1.5 points and a Harmonizing of 0.

Compound `CCC(C)CCCC(C)(C)O` (centres unmarked) [Tetrahydromyrcenol] has a Masking of 2 and a Harmonizing of 0.

With `CC(C)=CCCC1=CCC(C)(C=O)CC1` (centres unmarked) [Homomyracaldehyde, 1-methyl-4-(4-methyl-3-pentenyl)-3-cyclohexen carboxy aldehyde] the Masking was 1 and the Harmonizing was −1.

Compound `Cc1cccc(CC(C)(C)CO)c1` [2,2-Dimethyl-3-(3-methylphenyl)propanol] has a Masking of 0.5 points and a Harmonizing of −1.

Work on `C=CC(C)(O)CCC=C(C)CC` (mixture of isomers) [Ethyl linalool] yielded a Masking of 1.5 points and a Harmonizing of 0.

Compound `CCCCCCOC(=O)c1ccccc1O` [Hexyl salicylate] has a Masking of 1 and a Harmonizing of −1.

Work on `CC(=O)C1=C(C)[C@@H]2C[C@@]3(C1)[C@H](C)CC[C@H]3C2(C)C` [Woodyflor, acetylcedrene] yielded a Masking of 1.5 points and a Harmonizing of −1.

With `CC(CO)c1ccccc1` (centres unmarked) [2-Phenyl propanol] the Masking was 1 and the Harmonizing was −1.

With `CC(=O)OC1CC2CC1C1CC=CC21` (centres unmarked) [Tricyclodecenyl acetate] the Masking was 1.5 points and the Harmonizing was 0.

With `C/C=C/C(=O)C1=C(C)CCCC1(C)C` [β-Damascone] the Masking was 2 and the Harmonizing was 1.

In the case of `CC(=O)OCc1ccccc1` [Benzyl acetate], the Masking is reported as 2.5 points and the Harmonizing is reported as 1.

In the case of `CCCC(C)C(=O)OCC` (centres unmarked) [Ethyl-2-methyl valerate], the Masking is reported as 3 and the Harmonizing is reported as 1.
